Measured values reported in ChEMBL document CHEMBL4118055, “Chemoenzymatic Synthesis and α-Glucosidase Inhibitory Activity of Dimeric Neolignans Inspired by Magnolol” (J Nat Prod, 2017).

Columns and labels:
[1] = Inhibition of yeast alpha-glucosidase using p-nitrophenyl-alpha-glucopyranoside as substrate measured after 30 mins; parameters: species or system Saccharomyces cerevisiae
[2] = tested on: Saccharomyces cerevisiae; assay: Inhibition of yeast alpha-glucosidase at 1.5 uM using p-nitrophenyl-alpha-glucopyranoside as substrate measured after 30 mins relative to control
[3] = Competitive-inhibition of yeast alpha-glucosidase using varying levels of p-nitrophenyl-alpha-glucopyranoside as substrate incubated for 20 mins measured at 1 min interval by Lineweaver-burk plot analysis; parameters: species or system Saccharomyces cerevisiae

C=CCc1cc(O)c(O)c(-c2cc(CC=C)cc(OC)c2O)c1
IC50 [1]: 0.5 µM
inhibition [2]: 98%

CC(=O)OCCc1ccc(O)c(-c2cc(CCOC(C)=O)ccc2O)c1
IC50 [1]: 0.15 µM
inhibition [2]: 98.9%
Ki [3]: 0.86 µM

COc1cc(CCOC(C)=O)cc(-c2cc(CCOC(C)=O)cc(O)c2O)c1O
IC50 [1]: 3.3 µM
inhibition [2]: 21.3%

C=CCc1ccc(O)c(-c2cc(CC=C)ccc2O)c1 [MAGNOLOL]
IC50 [1]: 2 µM
inhibition [2]: 29.8%

COc1cc(CCOC(C)=O)cc(-c2cc(CCOC(C)=O)cc(OC)c2O)c1O
IC50 [1]: 1.1 µM
inhibition [2]: 64.5%

COc1cc(CCO)cc(-c2cc(CCO)cc(O)c2O)c1O
IC50 [1]: > 100 µM

C=CCc1cc(O)c(O)c(-c2cc(CC=C)cc(O)c2O)c1
IC50 [1]: 2.1 µM
inhibition [2]: 36.7%

C[C@H]1O[C@H](O[C@H]2[C@H](O)[C@@H](O)[C@@H](O[C@H]3[C@H](O)[C@@H](O)C(O)O[C@@H]3CO)O[C@@H]2CO)[C@H](O)[C@@H](O)[C@@H]1N[C@H]1C=C(CO)[C@@H](O)[C@H](O)[C@H]1O (stereo partly specified) [ACARBOSE]
IC50 [1]: 270 µM
inhibition [2]: 0.7%

O=c1c(O)c(-c2ccc(O)c(O)c2)oc2cc(O)cc(O)c12 [QUERCETIN]
IC50 [1]: 14.2 µM
inhibition [2]: 5.3%

OCCc1ccc(O)c(-c2cc(CCO)ccc2O)c1
IC50 [1]: 0.86 µM
inhibition [2]: 76.9%

OCCc1cc(O)c(O)c(-c2cc(CCO)cc(O)c2O)c1
IC50 [1]: 4.1 µM
inhibition [2]: 18.2%

C=CCc1cc(OC)c(O)c(-c2cc(CC=C)cc(OC)c2O)c1
IC50 [1]: 2 µM
inhibition [2]: 46.7%

CC(=O)OCCc1cc(O)c(O)c(-c2cc(CCOC(C)=O)cc(O)c2O)c1
IC50 [1]: 2.9 µM
inhibition [2]: 31.4%

C=CCc1ccc(O)c(-c2ccc(O)c(CC=C)c2)c1 [HONOKIOL]
IC50 [1]: 23 µM
inhibition [2]: 3.9%

C=CCc1ccc(O)c(-c2cc(CC=C)cc(O)c2O)c1
IC50 [1]: 0.49 µM
inhibition [2]: 97.6%

COc1cc(CCO)cc(-c2cc(CCO)cc(OC)c2O)c1O
IC50 [1]: > 100 µM
